Results published in patent US20230312576A1, “4-(7H-PYRROLO[2,3-D]PYRIMIDIN-4-YL)-3,6-DIHYDROPYRIDINE-1-(2H)-CARBOXAMIDE DERIVATIVES AS LIMK AND/OR ROCK KINASES INHIBITORS FOR USE IN THE TREATMENT OF CANCER” (CENTRE NATIONAL DE LA RECHERCHE SCIENTIFIQUE, priority 2020, published 2023).
Read-outs that look alike come from different tables or passages of the source.

Columns and labels:
ROCK1 = ROCK1 (Homo sapiens (Human), UniProt Q13464); test: Z'Lyte assay, ROCK1 inhibition at a single concentration; type: biochemical
Sequence of ROCK1 (Q13464 whole entry): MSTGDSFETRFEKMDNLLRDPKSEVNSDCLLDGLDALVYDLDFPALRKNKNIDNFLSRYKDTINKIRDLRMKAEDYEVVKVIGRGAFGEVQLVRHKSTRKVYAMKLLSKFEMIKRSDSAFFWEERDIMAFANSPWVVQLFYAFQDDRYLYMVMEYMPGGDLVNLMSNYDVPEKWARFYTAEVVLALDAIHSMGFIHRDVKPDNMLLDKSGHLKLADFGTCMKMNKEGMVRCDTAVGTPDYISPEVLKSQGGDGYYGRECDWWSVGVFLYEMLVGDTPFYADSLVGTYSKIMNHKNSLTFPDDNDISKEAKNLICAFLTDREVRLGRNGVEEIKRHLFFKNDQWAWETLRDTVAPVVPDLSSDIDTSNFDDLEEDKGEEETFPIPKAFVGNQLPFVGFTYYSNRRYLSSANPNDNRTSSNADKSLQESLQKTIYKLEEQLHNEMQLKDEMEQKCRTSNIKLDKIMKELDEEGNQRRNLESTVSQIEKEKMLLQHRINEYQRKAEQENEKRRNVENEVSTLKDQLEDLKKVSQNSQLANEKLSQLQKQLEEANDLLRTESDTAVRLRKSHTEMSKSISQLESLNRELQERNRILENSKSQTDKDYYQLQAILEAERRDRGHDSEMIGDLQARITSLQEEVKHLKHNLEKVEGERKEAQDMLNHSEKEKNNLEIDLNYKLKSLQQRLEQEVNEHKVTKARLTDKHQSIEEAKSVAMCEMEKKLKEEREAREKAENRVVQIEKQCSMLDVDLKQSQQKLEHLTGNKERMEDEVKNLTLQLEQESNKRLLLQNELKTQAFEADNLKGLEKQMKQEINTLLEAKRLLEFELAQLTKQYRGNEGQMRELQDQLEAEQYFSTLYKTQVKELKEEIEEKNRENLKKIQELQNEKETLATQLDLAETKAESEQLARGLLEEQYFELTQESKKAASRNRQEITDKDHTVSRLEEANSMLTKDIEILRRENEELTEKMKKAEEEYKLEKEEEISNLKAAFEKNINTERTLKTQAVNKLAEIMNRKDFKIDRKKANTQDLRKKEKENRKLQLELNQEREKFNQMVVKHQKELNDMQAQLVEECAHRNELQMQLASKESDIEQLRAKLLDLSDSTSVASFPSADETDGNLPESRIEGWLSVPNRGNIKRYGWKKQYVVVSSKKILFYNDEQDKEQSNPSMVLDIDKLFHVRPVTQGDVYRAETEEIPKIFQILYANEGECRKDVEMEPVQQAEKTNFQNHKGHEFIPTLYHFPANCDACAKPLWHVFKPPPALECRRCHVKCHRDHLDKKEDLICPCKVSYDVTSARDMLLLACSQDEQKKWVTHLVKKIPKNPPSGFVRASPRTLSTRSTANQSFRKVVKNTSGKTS

LIMK2 = LIMK2 (Homo sapiens (Human), UniProt P53671); test: Lanthascreen Eu binding assay (TR-FRET), inhibition of LIMK2
Sequence of LIMK2 (P53671 whole entry): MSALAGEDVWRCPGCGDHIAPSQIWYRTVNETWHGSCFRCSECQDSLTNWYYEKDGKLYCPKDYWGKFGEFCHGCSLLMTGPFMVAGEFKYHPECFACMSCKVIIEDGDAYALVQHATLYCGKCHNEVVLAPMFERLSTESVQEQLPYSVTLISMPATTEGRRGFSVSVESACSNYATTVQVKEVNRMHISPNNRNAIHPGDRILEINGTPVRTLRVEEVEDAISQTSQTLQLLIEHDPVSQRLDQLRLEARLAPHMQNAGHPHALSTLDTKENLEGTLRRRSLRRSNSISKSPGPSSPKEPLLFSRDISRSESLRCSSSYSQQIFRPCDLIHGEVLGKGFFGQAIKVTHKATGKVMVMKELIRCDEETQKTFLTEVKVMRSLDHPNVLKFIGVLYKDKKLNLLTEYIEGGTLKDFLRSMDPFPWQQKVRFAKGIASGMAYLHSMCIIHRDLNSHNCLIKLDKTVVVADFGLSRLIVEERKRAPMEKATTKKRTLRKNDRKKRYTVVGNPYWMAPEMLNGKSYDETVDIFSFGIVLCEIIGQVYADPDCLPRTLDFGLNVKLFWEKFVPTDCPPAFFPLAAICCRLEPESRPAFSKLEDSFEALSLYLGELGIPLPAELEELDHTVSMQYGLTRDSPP

LIMK1 = LIMK1 (Homo sapiens (Human), UniProt P53667); test: Lanthascreen Eu binding assay (TR-FRET), inhibition of LIMK1
Sequence of LIMK1 (P53667 whole entry): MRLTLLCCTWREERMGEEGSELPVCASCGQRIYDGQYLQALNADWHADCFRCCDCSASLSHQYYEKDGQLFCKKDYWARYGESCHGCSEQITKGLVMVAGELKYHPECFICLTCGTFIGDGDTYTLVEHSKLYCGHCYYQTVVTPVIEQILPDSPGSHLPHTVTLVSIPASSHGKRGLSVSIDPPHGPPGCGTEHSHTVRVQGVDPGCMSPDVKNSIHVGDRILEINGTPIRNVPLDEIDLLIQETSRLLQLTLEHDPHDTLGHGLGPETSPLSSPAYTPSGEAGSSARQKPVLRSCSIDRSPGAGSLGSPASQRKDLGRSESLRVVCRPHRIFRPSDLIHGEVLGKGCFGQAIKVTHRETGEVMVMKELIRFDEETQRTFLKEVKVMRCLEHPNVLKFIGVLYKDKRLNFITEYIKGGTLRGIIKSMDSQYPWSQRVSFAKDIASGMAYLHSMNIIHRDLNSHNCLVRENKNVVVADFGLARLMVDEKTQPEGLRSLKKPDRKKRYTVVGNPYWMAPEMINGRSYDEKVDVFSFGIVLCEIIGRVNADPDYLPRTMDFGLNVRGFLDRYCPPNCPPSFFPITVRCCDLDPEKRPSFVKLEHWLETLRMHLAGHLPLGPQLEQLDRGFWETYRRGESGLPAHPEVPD

ROCK2 = ROCK2 (Homo sapiens (Human), UniProt O75116); test: Z'Lyte assay, ROCK2 inhibition at a single concentration; type: biochemical
Sequence of ROCK2 (O75116 whole entry): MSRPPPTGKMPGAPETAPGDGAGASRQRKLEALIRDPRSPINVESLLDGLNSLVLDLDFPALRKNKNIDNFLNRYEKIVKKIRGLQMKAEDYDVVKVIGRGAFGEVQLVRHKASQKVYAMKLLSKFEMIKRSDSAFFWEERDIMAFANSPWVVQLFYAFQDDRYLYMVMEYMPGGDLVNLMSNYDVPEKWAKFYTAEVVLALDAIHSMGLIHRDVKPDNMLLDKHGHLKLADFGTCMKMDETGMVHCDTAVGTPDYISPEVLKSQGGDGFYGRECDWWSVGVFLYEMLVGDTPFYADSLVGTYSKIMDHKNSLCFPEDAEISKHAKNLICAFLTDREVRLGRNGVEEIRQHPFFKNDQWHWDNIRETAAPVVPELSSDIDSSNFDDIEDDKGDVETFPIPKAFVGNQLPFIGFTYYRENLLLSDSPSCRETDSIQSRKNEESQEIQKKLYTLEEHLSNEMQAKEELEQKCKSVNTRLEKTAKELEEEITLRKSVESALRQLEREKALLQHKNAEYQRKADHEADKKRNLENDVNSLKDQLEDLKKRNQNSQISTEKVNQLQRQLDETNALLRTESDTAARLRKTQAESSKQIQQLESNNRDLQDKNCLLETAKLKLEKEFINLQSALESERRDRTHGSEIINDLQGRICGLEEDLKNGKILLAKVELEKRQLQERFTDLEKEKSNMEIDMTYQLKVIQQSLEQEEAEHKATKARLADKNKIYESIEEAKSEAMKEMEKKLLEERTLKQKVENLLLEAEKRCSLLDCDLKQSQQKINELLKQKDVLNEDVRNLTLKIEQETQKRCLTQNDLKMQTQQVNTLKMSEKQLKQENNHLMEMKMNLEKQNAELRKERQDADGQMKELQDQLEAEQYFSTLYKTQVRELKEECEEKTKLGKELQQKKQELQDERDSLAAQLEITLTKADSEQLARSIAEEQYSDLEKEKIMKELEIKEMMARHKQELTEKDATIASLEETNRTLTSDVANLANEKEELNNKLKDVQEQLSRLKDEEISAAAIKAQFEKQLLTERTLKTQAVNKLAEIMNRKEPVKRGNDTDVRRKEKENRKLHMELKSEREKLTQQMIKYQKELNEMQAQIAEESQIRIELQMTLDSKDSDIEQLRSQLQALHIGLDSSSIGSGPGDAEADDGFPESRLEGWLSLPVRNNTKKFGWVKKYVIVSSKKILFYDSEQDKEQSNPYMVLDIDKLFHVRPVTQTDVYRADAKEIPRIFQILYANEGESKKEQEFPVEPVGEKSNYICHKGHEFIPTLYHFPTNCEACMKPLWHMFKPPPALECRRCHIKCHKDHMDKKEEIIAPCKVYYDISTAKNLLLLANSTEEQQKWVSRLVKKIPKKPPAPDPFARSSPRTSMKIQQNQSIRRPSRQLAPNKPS

[1] = read-out: % inhibition (ROCK1) 1 uM
[2] = read-out: % inhibition (ROCK2) 1 uM
[3] = read-out: % inhibition (ROCK1) 1 uM, 1 uM
[4] = read-out: % inhibition (ROCK2) 1 uM, 1 uM

Ki (LIMK2; Lanthascreen Eu binding assay) [nM]	Ki (LIMK1; Lanthascreen Eu binding assay) [nM]	inhibition at 1 µM (ROCK1; [3]) [%]	inhibition at 1 µM (ROCK2; [4]) [%]	Structure (SMILES)	inhibition at 1 µM (ROCK1; [1]) [%]	inhibition at 1 µM (ROCK2; [2]) [%]	also measured
–	–	79	69	Cc1c[nH]c2ncnc(C3=CCN(C(=O)Nc4ccc(Cl)c(C(F)(F)F)c4)CC3)c12 [Compound 12, N-(4-Chloro-3-(trifluoromethyl)phenyl)-4-(5-methyl-7H-pyrrolo[2,3-d]pyrimidin-4-yl)-3,6-dihydropyridine-1(2H)-carboxamide]	–	–	–
341	80.1	–	–	Cc1c[nH]c2ncnc(C3=CCN(C(=O)Nc4ccc(Oc5ccccc5)cc4)CC3)c12 [Compound 16, 4-(5-Methyl-7H-pyrrolo[2,3-d]pyrimidin-4-yl)-N-(4-phenoxy-phenyl)-3,6-dihydropyridine-1(2H)-carboxamide]	–	–	% inhibition (ROCK1) 1 uM (ROCK1; 1 uM): 15%; % inhibition (ROCK2) 1 uM (ROCK2; 1 uM): 14%
193	162	55	28	CCc1cccc(NC(=O)N2CC=C(c3ncnc4[nH]cc(C)c34)CC2)c1 [Compound 20, N-(3-Ethylphenyl)-4-(5-methyl-7H-pyrrolo[2,3-d]pyrimidin-4-yl)-3,6-dihydropyridine-1(2H)-carboxamide]	–	–	–
90.7	278	85	64	Cc1c[nH]c2ncnc(C3=CCN(C(=O)Nc4cccc(-n5cncn5)c4)CC3)c12 [Compound 26, N-(3-(1H-1,2,4-Triazol-1-yl)phenyl)-4-(5-methyl-7H-pyrrolo[2,3-d]pyrimidin-4-yl)-3,6-dihydropyridine-1(2H)-carboxamide]	–	–	–
43.6	34.5	–	–	Cc1c[nH]c2ncnc(C3=CCN(C(=O)Nc4ccc(Oc5ccccc5)cc4)CC3)c12 [Compound 28, 4-(5-Methyl-7H-pyrrolo[2,3-d]pyrimidin-4-yl)-N-(4-phenoxy-phenyl)-3,6-dihydropyridine-1(2H)-carboxamide]	–	–	% inhibition (ROCK1) 1 uM (ROCK1; 1 uM): 76%; % inhibition (ROCK2) 1 uM (ROCK2; 1 uM): 35%
186	50.1	96	87	Cc1c[nH]c2ncnc(C3=CCN(C(=O)Nc4cccs4)CC3)c12 [Compound 33, 4-(5-methyl-7H-pyrrolo[2,3-d]pyrimidin-4-yl)-N-(2-thienyl)-3,6-dihydro-2H-pyridine-1-carboxamide]	–	–	–
13.4	10.6	33	22	CC(=O)NCCCOc1cccc(-c2cccc(NC(=O)N3CC=C(c4ncnc5[nH]cc(C)c45)CC3)c2)c1 [Compound 40, N-(3′-(3-Acetamidopropoxy)-[1,1′-biphenyl]-3-yl)-4-(5-methyl-7H-pyrrolo[2,3-d]pyrimidin-4-yl)-5,6-dihydropyridine-1(2H)-carboxamide]	–	–	–
53.3	30.7	37	31	Cc1c[nH]c2ncnc(C3=CCN(C(=O)Nc4cccc(Oc5ccc(N(C)C)cc5)c4)CC3)c12 [Compound 42, N-[3-[4-(Dimethylamino)phenoxy]phenyl]-4-(5-methyl-7H-pyrrolo[2,3-d]pyrimidin-4-yl)-3,6-dihydro-2H-pyridine-1-carboxamide]	–	–	–
–	90.9	6	-4	O=C(NC1CCCCC1)N1CC=C(c2ncnc3[nH]cc(C4CC4)c23)CC1 [Compound 83, N-Cyclohexyl-4-(5-cyclopropyl-7H-pyrrolo[2,3-d]pyrimidin-4-yl)-3,6-dihydropyridine-1(2H)-carboxamide]	–	–	–
19.6	6.49	7	2	O=C(Nc1cccc(-c2ccncc2)c1)N1CC=C(c2ncnc3[nH]c4c(c23)CCC4)CC1 [Compound 124, N-(3-(Pyridin-4-yl)phenyl)-4-(5,6,7,8-tetrahydrocyclopenta [4,5]pyrrolo[2,3-d]pyrimidin-4-yl)-3,6-dihydropyridine-1(2H)-carboxamide]	–	–	–

The next lines start with the compound.

Structure (SMILES)	Ki (LIMK2; Lanthascreen Eu binding assay) [nM]	Ki (LIMK1; Lanthascreen Eu binding assay) [nM]	inhibition at 1 µM (ROCK1; [3]) [%]	inhibition at 1 µM (ROCK2; [4]) [%]	inhibition at 1 µM (ROCK1; [1]) [%]	inhibition at 1 µM (ROCK2; [2]) [%]	also measured
Cc1c[nH]c2ncnc(C3=CCN(C(=O)NC4CCCc5ccccc54)CC3)c12 (racemic) [Compound 34-rac, 4-(5-methyl-7H-pyrrolo[2,3-d]pyrimidin-4-yl)-N-tetralin-1-yl-3,6-dihydro-2H-pyridine-1-carboxamide]	742	610	–	–	79	52	–
Cc1c[nH]c2ncnc(C3=CCN(C(=O)Nc4ccc5c(c4)OCO5)CC3)c12 [Compound 14, N-(Benzo[d][1,3]dioxol-5-yl)-4-(5-methyl-7H-pyrrolo[2,3-d]pyrimidin-4-yl)-3,6-dihydropyridine-1(2H)-carboxamide]	–	–	–	–	79	59	–
Cc1c[nH]c2ncnc(C3=CCN(C(=O)Nc4cccc(-n5ccnc5)c4)CC3)c12 [Compound 24, N-(3-(1H-Imidazol-1-yl)phenyl)-4-(5-methyl-7H-pyrrolo[2,3-d]pyrimidin-4-yl)-3,6-dihydropyridine-1(2H)-carboxamide]	–	–	–	–	40	25	–
Cc1c[nH]c2ncnc(C3=CCN(C(=O)N[C@@H]4CCCc5ccccc54)CC3)c12 [Compound 35-R, 4-(5-methyl-7H-pyrrolo[2,3-d]pyrimidin-4-yl)-N-tetralin-1-yl-3,6-dihydro-2H-pyridine-1-carboxamide]	–	–	–	–	24	12	Ki (LIMK2): 2540 nM; Ki (LIMK1): 851 nM
O=C(Nc1ccccc1)N1CC=C(c2ncnc3[nH]c4c(c23)CCCC4)CC1 [Compound 120, N-Phenyl-4-(6,7,8,9-tetrahydro-5H-pyrimido[4,5-b]indol-4-yl)-3,6-dihydropyridine-1(2H)-carboxamide]	29.6	14.9	–	–	0	-9	–
O=C(Nc1cccc(-c2ccccc2)c1)N1CC=C(c2ncnc3[nH]c4c(c23)CCC4)CC1 [Compound 123, N-([1,1′-Biphenyl]-3-yl)-4-(5,6,7,8-tetrahydrocyclopenta[4,5]pyrrolo[2,3-d]pyrimidin-4-yl)-3,6-dihydropyridine-1(2H)-carboxamide]	16.2	11.5	–	–	10	1	–
CC1=CC(C)=[N+]2C1=Cc1ccc(CCC(=O)NCCCOc3cccc(-c4cccc(NC(=O)N5CC=C(c6ncnc7[nH]cc(C8CC8)c67)CC5)c4)c3)n1[B-]2(F)F [Compound 168, N-(3′-(3-(3-(5,5-Difluoro-7,9-dimethyl-5H-dipyrrolo[1,2-c:2′,1′-f][1,3,2]diazaborinin-3-yl)propanamido)propoxy)-[1,1′-biphenyl]-3-yl)-4-(5-isopropyl-7H-pyrrolo[2,3-d]pyrimidin-4-yl)-3,6-dihydropyridine-1(2H)-carboxamide]	–	–	–	–	–	–	% inhibition (ROCK1) 1 uM (ROCK1): 2%; % inhibition (ROCK2) 1 uM (ROCK2): 20%
CC1=CC(C)=[N+]2C1=Cc1ccc(CCC(=O)NCCCOc3cccc(-c4cccc(NC(=O)N5CC=C(c6ncnc7[nH]cc(C)c67)CC5)c4)c3)n1[B-]2(F)F [Compound 169, N-(3′-(3-(3-(5,5-difluoro-7,9-dimethyl-5H-dipyrrolo[1,2-c:2′,1′-f][1,3,2]diazaborinin-3-yl)propanamido)propoxy)-[1,1′-biphenyl]-3-yl)-4-(5-methyl-7H-pyrrolo [2,3-d]pyrimidin-4-yl)-3,6-dihydropyridine-1(2H)-carboxamide]	–	–	–	–	–	–	% inhibition (ROCK1) 1 uM (ROCK1): 10%
